Measured values reported in patent publication US20020026052A1, “3-cyanoquinolines, 3-cyano-1,6-naphthyridines, and 3-cyano-1,7-naphthyridines as protein kinase inhibitors” (American Home Products Corporation, priority 2000, published 2002).

Compound | melting point
COc1cc(Nc2c(C#N)cnc3cc(-c4ccc(CN5CCN(C)CC5)cn4)ccc23)c(Cl)cc1Cl | 212 to 215 °C
COc1cc(Nc2c(C#N)cnc3cc(-c4cccc(CN5CCOCC5)n4)ccc23)c(Cl)cc1Cl | 181 to 183 °C
COc1cc(Nc2c(C#N)cnc3cc(-c4cc(CN5CCOCC5)ccn4)ccc23)c(Cl)cc1Cl | 180 to 182 °C
COc1cc(Nc2c(C#N)cnc3cc(-c4cncc(CN5CCOCC5)c4)ccc23)c(Cl)cc1Cl | 141 to 143 °C
COc1cc(Nc2c(C#N)cnc3cc(-c4ccc(CN5CCOCC5)cn4)ccc23)c(Cl)cc1Cl | 220 to 222 °C
COc1cc(Nc2c(C#N)cnc3cc(-c4ccc(CN5CCOCC5)nc4)ccc23)c(Cl)cc1Cl | 195 to 197 °C
N#Cc1cnc2cc(-c3csc(CN4CCOCC4)c3)ccc2c1Nc1ccc(Oc2ccccc2)cc1 [Example 7, 7-[5-(4-Morpholinylmethyl)-3-thienyl]-4-(4-phenoxyanilino)-3-quinolinecarbonitrile] | 221 to 223 °C
N#Cc1cnc2cc(-c3csc(CN4CCOCC4)c3)ccc2c1Nc1ccc(Cc2ccccc2)cc1 [Example 8, 4-(4-Benzylanilino)-7-[5-(4-morpholinylmethyl)-3-thienyl]-3-quinolinecarbonitrile] | 228 to 230 °C
N#Cc1cnc2cc(C#CCO)ccc2c1Nc1ccc(Cl)cc1Cl [Example 14, 4-(2,4-Dichloroanilino)-7-(3-hydroxy-1-propynyl)-3-quinolinecarbonitrile] | 251 to 253 °C
N#Cc1cnc2cc(-c3ccc(-c4ccccn4)s3)ccc2c1Nc1ccc(Cl)cc1Cl [Example 18, 4-(2,4-dichloroanilino)-7-[5-(2-pyridinyl)-2-thienyl]-3-quinolinecarbonitrile] | 270 °C (dec.)
COc1cc(Nc2c(C#N)cnc3cc(-c4ccc(/C=C/CN5CCOCC5)s4)ccc23)c(Cl)cc1Cl [Example 21, 4-(2,4-Dichloro-5-methoxyanilino)-7-{5-[(E)-3-(4-morpholinyl)-1-propenyl]-2-thienyl}-3-quinolinecarbonitrile] | 145 °C
COc1cc(Nc2c(C#N)cnc3cc(-c4ccc(CN5CCOCC5)c(CN5CCOCC5)c4)ccc23)c(Cl)cc1Cl [Example 34, 7-[3,4-bis(4-morpholinylmethyl)phenyl]-4-(2,4-dichloro-5-methoxyanilino)-3-quinolinecarbonitrile] | 198 to 200 °C
COc1cc(Nc2c(C#N)cnc3cc(-c4csc(C5OCCO5)c4)ccc23)c(Cl)cc1Cl [Example 42, 4-(2,4-dichloro-5-methoxyanilino)-7-[5-(1,3-dioxolan-2-yl)-3-thienyl]-3-quinoline-carbonitrile] | 234 to 236 °C
COc1cc(Nc2c(C#N)cnc3cc(-c4csc(C=O)c4)ccc23)c(Cl)cc1Cl [Example 43, 4-(2,4-Dichloro-5-methoxyanilino)-7-(5-formyl-3-thienyl)-3-quinolinecarbonitrile] | 259 to 262 °C (dec.)
N#Cc1cnc2cc(-c3csc(C=O)c3)ccc2c1Nc1ccc(Cl)cc1Cl [Example 44, 4-(2,4-dichloroanilino)-7-(5-formyl-3-thienyl)-3-quinolinecarbonitrile] | 286 to 288 °C
COc1cc(Nc2c(C#N)cnc3ccc(-c4csc(C=O)c4)cc23)c(Cl)cc1Cl [Example 45, 4-(2,4-Dichloro-5-methoxyanilino)-6-(5-formyl-3-thienyl)-3-quinolinecarbonitrile] | 233 to 237 °C
N#Cc1cnc2cc(-c3cncc(CN4CCOCC4)c3)ccc2c1Nc1ccc(Oc2ccccc2)cc1 [Example 48, 7-[5-(4-Morpholinylmethyl)-3-pyridinyl]-4-(4-phenoxyanilino)-3-quinolinecarbonitrile] | 185 to 187 °C
N#Cc1cnc2cc(-c3ccc(CN4CCOCC4)cn3)ccc2c1Nc1ccc(Oc2ccccc2)cc1 [Example 56, 7-[5-(4-Morpholinylmethyl)-2-pyridinyl]-4-(4-phenoxyanilino)-3-quinolinecarbonitrile] | 219 to 221 °C
N#Cc1cnc2ccc(-n3cccc3C=O)cc2c1Nc1cccc(Br)c1 [Example 60, 4-(3-Bromoanilino)-6-(2-formyl-1H-pyrrol-1-yl)-3-quinolinecarbonitrile] | 94 to 95 °C
Cn1ccnc1Sc1ccc(Nc2c(C#N)cnc3cc(-c4ccc(C=O)cc4)ccc23)cc1Cl [Example 62, 4-{3-chloro-4-[(1-methyl-1H-imidazol-2-yl)sulfanyl]anilino}-7-(4-formylphenyl)-3-quinolinecarbonitrile] | > 240 °C (dec.)
Cn1ccnc1Sc1ccc(Nc2c(C#N)cnc3cc(-c4ccc(CN5CCOCC5)cc4)ccc23)cc1Cl [Example 63, 4-{3-chloro-4-[(1-methyl-1H-imidazol-2-yl)sulfanyl]anilino}-7-[4-(4-morpholinylmethyl)phenyl]-3-quinolinecarbonitrile] | 148 to 150 °C
Cc1cc(Nc2c(C#N)cnc3cc(-c4csc(C5OCCO5)c4)ccc23)ccc1OCc1ccccn1 [Example 94, 7-[5-(1,3-Dioxolan-2-yl)-3-thienyl]-4-[3-methyl-4-(2-pyridinylmethoxy)anilino]-3-quinolinecarbonitrile] | 194 to 196 °C
Cc1cc(Nc2c(C#N)cnc3cc(-c4csc(CN5CCOCC5)c4)ccc23)ccc1OCc1ccccn1 [Example 95, 4-[3-Methyl-4-(2-pyridinylmethoxy)anilino]-7-[5-(4-morpholinylmethyl)-3-thienyl]-3-quinolinecarbonitrile] | 217 to 219 °C
COc1cc(Nc2c(C#N)cnc3cc(-c4cnc(C=O)n4C)ccc23)c(Cl)cc1Cl [Example 96, 4-(2,4-Dichloro-5-methoxyanilino)-7-(2-formyl-1-methyl-1H-imidazol-5-yl)-3-quinolinecarbonitrile] | 186 to 189 °C
CC(C)N1CCN(Cc2ccc(-c3ccc4c(Nc5ccc(Sc6nccn6C)c(Cl)c5)c(C#N)cnc4c3)cc2)CC1 [Example 98, 4-({3-Chloro-4-[(1-methyl-1H-imidazol-2-yl)sulfanyl]phenyl}amino)-7-{4-[(4-isopropyl-1-piperazinyl)methyl]phenyl}-3-quinolinecarbonitrile] | 193 to 195 °C
COc1cc(Nc2c(C#N)cnc3cc(-c4ccc(Cn5ccnn5)cc4)ccc23)c(Cl)cc1Cl [Example 103, 4-[(2,4-Dichloro-5-methoxyphenyl)amino]-7-[4-(1H-1,2,3-triazol-1-ylmethyl)phenyl]-3-quinolinecarbonitrile] | 239 to 240 °C
CN(CCO)Cc1ccc(-c2ccc3c(Nc4ccc(Sc5nccn5C)c(Cl)c4)c(C#N)cnc3c2)nc1 [Example 106, 4-({3-Chloro-4-[(1-methyl-IH-irnidazol-2-yl)sulfanyl]phenyl}amino)-7-(5-{[(2-hydroxyethyl) (methyl)amino]methyl}-2-pyridinyl)-3-quinolinecarbonitrile] | 197 to 199 °C
COC(=O)C1CCN(Cc2ccc(-c3ccc4c(Nc5ccc(Sc6nccn6C)c(Cl)c5)c(C#N)cnc4c3)nc2)CC1 [Example 107, Methyl 1-{[6-(4-{3-chloro-4-[(1-methyl-1H-imidazol-2-yl)sulfanyl]anilino}-3-cyano-7-quinolinyl)-3-pyridinyl]methyl}-4-piperidinecarboxylate] | 135 to 137 °C
